US12606566B2, “Substituted cyclopenta[4,5]pyrrolo[1,2-a]pyrazines as bruton's tyrosine kinase inhibitors” (Shanghai Synergy Pharmaceutical Sciences Co., Ltd., priority 2020, dated 2026)

Columns and labels:
[1] = test system: tumour cells (A20 5E6 cells); assay: Inhibitory effect on tumour cell proliferation (CCK8); assay type: cell-based; settings: CCK8 absorbance, read-out: Inhibitory effect of the compound on cell proliferation IC50
Method: This experiment was to determine the effect of the compound on cell proliferation.
To determine the inhibitory effect of the compound on the proliferation of tumour cells, tumour cells (A20 5E6 cells) were cultured to a certain amount and seeded into 96-well plates. […] The absorbance value was measured after the addition of CCK8 and 2 h incubation to determine the inhibitory effect of the compound on cell proliferation. The IC50 value of the compound was obtained by data fitted with Graphpad.

BTK kinase = BTK kinase (Homo sapiens, UniProt Q06187); assay: BTK kinase inhibitory activity, mobility shift method; assay type: biochemical; settings: compound co-incubated with the enzyme for 30 minutes
Chain of BTK kinase (Q06187 whole entry): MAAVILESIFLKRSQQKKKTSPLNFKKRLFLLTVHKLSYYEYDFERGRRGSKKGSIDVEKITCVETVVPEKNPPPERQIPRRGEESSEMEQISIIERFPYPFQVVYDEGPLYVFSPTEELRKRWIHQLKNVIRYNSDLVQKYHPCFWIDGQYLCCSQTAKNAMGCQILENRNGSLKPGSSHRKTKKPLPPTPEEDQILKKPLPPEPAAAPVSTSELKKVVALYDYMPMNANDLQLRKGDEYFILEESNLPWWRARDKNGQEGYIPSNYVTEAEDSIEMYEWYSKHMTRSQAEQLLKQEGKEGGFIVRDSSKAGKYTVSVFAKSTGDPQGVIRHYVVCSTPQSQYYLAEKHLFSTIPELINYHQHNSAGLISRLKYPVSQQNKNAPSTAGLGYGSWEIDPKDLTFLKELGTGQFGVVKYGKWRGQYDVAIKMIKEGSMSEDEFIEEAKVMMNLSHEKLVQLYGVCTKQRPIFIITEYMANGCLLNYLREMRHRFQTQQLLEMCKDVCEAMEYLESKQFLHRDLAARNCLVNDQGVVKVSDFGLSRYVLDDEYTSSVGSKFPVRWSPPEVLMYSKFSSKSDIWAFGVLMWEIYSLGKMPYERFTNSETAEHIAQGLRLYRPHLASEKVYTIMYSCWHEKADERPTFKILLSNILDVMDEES
Method: The BTK kinase inhibitory activity of the compound was determined using a mobility shift method with the reaction system (kinase solution, ATP, kinase substrate2). The compound was co-incubated with the enzyme for 30 minutes, and then the conversion rate was read using the Caliper EZ reader. The compound inhibition rate was determined using the calculation formula and the data was fitted using Graphpad to derive the IC50 value for the compounds of this application.

IC50 [1] [nM] | IC50 (BTK kinase) [nM] | Compound
47 | 0.27 | CN1CCN(c2ccc(Nc3cc(-c4ccnc(N5CCn6c7c(c(F)c6C5=O)CC(C)(C)C7)c4CO)cn(C)c3=O)nc2)CC1 [Example H14, 9-fluoro-2-(3′-(hydroxymethyl)-1-methyl-5-((5-(4-methylpiperazin-1-yl)pyridin-2-yl)amino)-6-oxo-1,6-dihydro-[3,4′-bipyridin]-2′-yl)-7,7-dimethyl-3,4,7,8-tetrahydro-2H-cyclopenta[4,5]pyrrolo[1,2-a]pyrazin-1(6H)-one]
23 | 0.68 | Cn1cc(-c2ccnc(N3CCn4c5c(c(F)c4C3=O)CC(C)(C)C5)c2CO)cc(Nc2ccc(N3CCN(C4COC4)CC3)cc2)c1=O [Example H15, 9-fluoro-2-(3′-(hydroxymethyl)-1-methyl-5-((4-(4-(oxetan-3-yl)piperazin-1-yl)phenyl)amino)-6-oxo-1,6-dihydro-[3,4′-bipyridin]-2′-yl)-7,7-dimethyl-3,4,7,8-tetrahydro-2H-cyclopenta[4,5]pyrrolo[1,2-a]pyrazin-1(6H)-one]
47 | 0.17 | Cn1cc(-c2ccnc(N3CCn4c5c(c(F)c4C3=O)CC(C)(C)C5)c2CO)cc(Nc2ccc(N3CCN(C4COC4)CC3)nc2)c1=O [Example H16, 9-fluoro-2-(3′-(hydroxymethyl)-1-methyl-5-((6-(4-(oxetan-3-yl)piperazin-1-yl)pyridin-3-yl)amino)-6-oxo-1,6-dihydro-[3,4′-bipyridin]-2′-yl)-7,7-dimethyl-3,4,7,8-tetrahydro-2H-cyclopenta[4,5]pyrrolo[1,2-a]pyrazin-1(6H)-one]
